Measurements reported in the supplement of paper PMC10307832.

Assays:
Test in all cases: relative viability (nuclei count vs DMSO), 5 days (fraction); higher = more cells survive
[1] = compound: CC1=CC=C(C=C1)C(=O)CN2C3=C(CCCC3)SC2=N [Pifithrin_alpha] + Nc1nc2[nH]cc(CCc3ccc(C(=O)N[C@@H](CCC(=O)O)C(=O)O)cc3)c2c(=O)[nH]1 [Pemetrexed] (partner 0.2 µM)
In short: (§1)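 After 5 days of treatment, lung cancer cells in 1536-well plates were fixed and stained in a single step (final 0.05% Triton X-100, 1% formaldehyde, 1 ug/ml Hoechst) and their nuclei counted on 4× images. Treatment had been applied by pin tool the day after seeding as one drug alone or as a fixed anchor-drug dose with five library-drug doses (not always all listed) in √10 steps. Relative viability is the nuclei count of treated wells divided by that of vehicle wells, and values are medians of duplicate plates.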

[2] = compound: CC1=CC=C(C=C1)C(=O)CN2C3=C(CCCC3)SC2=N [Pifithrin_alpha] + O=C(CCCCCCC(=O)Nc1ccccc1)NO [Vorinostat] (partner 1 µM)
In short: as §1

Bemcentinib + Tozasertib = compound: Nc1nc(Nc2ccc3c(c2)CC[C@@H](N2CCCC2)CC3)nn1-c1cc2c(nn1)-c1ccccc1CCC2 [Bemcentinib] + Cc1cc(Nc2cc(N3CCN(C)CC3)nc(Sc3ccc(NC(=O)C4CC4)cc3)n2)n[nH]1 [Tozasertib] (partner 0.1 µM)
In short: as §1

Bemcentinib + Olaparib = compound: Nc1nc(Nc2ccc3c(c2)CC[C@@H](N2CCCC2)CC3)nn1-c1cc2c(nn1)-c1ccccc1CCC2 [Bemcentinib] + O=C(c1cc(Cc2n[nH]c(=O)c3ccccc23)ccc1F)N1CCN(C(=O)C2CC2)CC1 [Olaparib] (partner 8 µM)
In short: as §1

Cell Line | relative viability ([1]; first compound 1 µM) | relative viability ([1]; first compound 3.162 µM) | relative viability ([1]; first compound 10 µM) | relative viability ([1]; first compound 31.62 µM) | relative viability ([1]; first compound 100 µM) | relative viability ([2]; first compound 1 µM) | relative viability ([2]; first compound 3.162 µM) | relative viability ([2]; first compound 10 µM) | relative viability ([2]; first compound 31.62 µM) | relative viability ([2]; first compound 100 µM) | relative viability (Bemcentinib + Tozasertib; first compound 0.04 µM) | relative viability (Bemcentinib + Tozasertib; first compound 0.1265 µM) | relative viability (Bemcentinib + Tozasertib; first compound 0.4 µM) | relative viability (Bemcentinib + Tozasertib; first compound 1.265 µM) | relative viability (Bemcentinib + Tozasertib; first compound 4 µM) | relative viability (Bemcentinib + Olaparib; first compound 0.04 µM) | relative viability (Bemcentinib + Olaparib; first compound 0.1265 µM) | relative viability (Bemcentinib + Olaparib; first compound 0.4 µM) | relative viability (Bemcentinib + Olaparib; first compound 1.265 µM) | relative viability (Bemcentinib + Olaparib; first compound 4 µM)
A-427 | 0.827 | 1 | 0.87 | 0.759 | 0.905 | 0.827 | 0.83 | 0.807 | 0.762 | 0.728 | 0.192 | 0.192 | 0.197 | 0.213 | 0.201 | 0.737 | 0.783 | 0.853 | 0.72 | 0.71
LXF-289 | 0.908 | 0.985 | 0.921 | 0.767 | 0.943 | 0.718 | 0.805 | 0.79 | 0.662 | 0.782 | 0.179 | 0.2 | 0.185 | 0.185 | 0.205 | 1.13 | 1.16 | 1.13 | 1.06 | 1.04
NCI-H1355 | 0.977 | 0.972 | 0.764 | 0.686 | 0.677 | 0.606 | 0.483 | 0.429 | 0.376 | 0.479 | 0.529 | 0.569 | 0.562 | 0.61 | 0.538 | 0.748 | 0.811 | 0.766 | 0.773 | 0.75
NCI-H1437 | 0.337 | 0.313 | 0.309 | 0.258 | 0.253 | 0.78 | 0.619 | 0.565 | 0.468 | 0.356 | 0.399 | 0.435 | 0.436 | 0.421 | 0.401 | 0.639 | 0.656 | 0.718 | 0.651 | 0.592
HCC-366 | 0.158 | 0.154 | 0.139 |  | 0.133 | 0.252 | 0.204 | 0.171 |  | 0.209 | 0.125 | 0.101 | 0.119 | 0.149 | 0.11 | 0.421 | 0.35 | 0.415 | 0.387 | 0.353
NCI-H1299 |  |  |  |  |  |  |  |  |  |  |  |  |  |  |  | 1.01 | 1.02 | 0.961 | 1 | 0.93
201T | 0.315 | 0.337 | 0.296 | 0.29 | 0.295 | 0.529 | 0.948 | 0.757 | 0.666 | 0.711 | 0.932 | 1.06 | 0.94 | 0.868 | 0.964 | 0.872 | 0.874 | 0.934 | 0.897 | 0.818
IA-LM |  |  |  |  |  |  | 1.16 |  | 0.913 | 0.907 |  |  |  |  |  | 0.799 | 0.913 | 0.885 | 0.859 | 0.89
NCI-H1734 | 0.452 | 0.434 | 0.428 | 0.367 | 0.358 | 0.715 | 0.776 | 0.773 | 0.537 | 0.75 | 0.245 | 0.28 | 0.25 | 0.256 | 0.27 | 0.634 | 0.754 | 0.649 | 0.603 | 0.642
NCI-H1993 | 0.844 | 0.547 | 0.669 | 0.452 | 0.479 | 0.771 | 0.607 | 0.754 | 0.627 | 0.793 | 0.548 | 0.551 | 0.592 | 0.56 | 0.588 | 1.05 | 1.23 | 1 | 1.15 | 1.16
NCI-H2085 | 0.945 | 0.819 | 0.888 | 0.835 | 0.713 | 0.648 | 0.737 | 0.71 | 0.616 | 0.623 | 0.788 | 0.974 | 0.69 | 0.797 | 0.757 | 0.747 | 0.707 | 0.768 | 0.755 | 0.741
EBC-1 |  |  |  |  |  |  |  |  |  |  |  |  |  |  |  | 0.773 | 0.73 | 0.693 | 0.691 | 0.754
COR-L23 | 0.19 | 0.201 | 0.196 |  | 0.181 | 0.42 | 0.349 | 0.361 |  | 0.344 | 0.232 | 0.167 | 0.225 | 0.211 | 0.183 | 0.38 | 0.314 | 0.371 | 0.328 | 0.344
NCI-H1793 | 0.538 | 0.79 | 0.888 | 0.671 | 0.695 | 0.674 | 0.571 | 0.655 | 0.753 | 0.46 | 0.313 | 0.371 | 0.314 |  | 0.371 | 0.852 | 1.16 | 0.987 | 0.961 | 0.842
A549 |  |  |  |  |  |  |  |  |  |  |  |  |  |  |  | 0.264 | 0.279 | 0.323 | 0.167 | 0.342
EPLC-272H | 0.444 | 0.3 | 0.249 | 0.295 | 0.382 | 0.472 | 0.419 | 0.244 | 0.177 | 0.27 | 0.281 | 0.207 | 0.249 | 0.252 | 0.261 | 0.753 | 1.02 | 0.975 | 0.833 | 0.761
